What was measured:
ddy mice = experiment: Acute toxicity (intravenous), mortality 24 hours after administration; type: in vivo; conditions: for mortality: 24 hours
Method: 500 mg/kg and 1,000 mg/kg of each of isosorbide-5-mononitrate (5-ISMN) and isosorbide-2-mononitrate (2-ISMN) were intravenously injected to ddy mice of approximately 20 g in body weight to observe their toxicity. The mortality was determined 24 hours after the administration.

[1] = system: intraocular hypertension of rabbits caused by α-chymotrypsin; experiment: Effect on intraocular hypertension of rabbits caused by α-chymotrypsin (intraocular tension); type: in vivo, male white rabbits; design: Intraocular tension: unit not given here; conditions: for Intraocular tension: 35 μl instilled, mean of five animals ± standard error; for effects of lowering intraocular tension (conclusion): ophthalmic solution containing 5-ISMN or 2-ISMN
Method: Models of intraocular hypertension were prepared by the use of male white rabbits of approximately 2.5 kg in body weight according to the method reported by Sears (cf. Sears, D. and Sears, M., Am. J. Ophthalmol., Vol. 77, No. 3, p. 378 to 383, 1974). A rabbit was anesthetized by intravenously injecting 20 mg/kg of pentobarbital sodium and 2% of lidocaine was instilled in the left eye of the animal to anesthetize locally. A volume of 0.5 ml physiological saline solution was injected into the anterior chamber of the left eye with a needle and subsequently 0.5 ml of α-chymotrypsin 300 NFU/ml was injected into the posterior chamber with another needle while holding the former needle as such. After removing the needle inserted into the posterior chamber, the needle inserted into the anterior chamber was removed. The rabbit experimentally suffering from intraocular hypertension thus prepared was allowed to stand for 25 to 30 days to thereby recover from postoperative keratitis or conjunctivitis and to hold a stable intraocular hypertension. Then it was subjected to the test.
Intraocular tension was determined with a Perkin's Hand Applanation Tonometer (a product of Clement Clark, London) under anesthesia with 2% halothane, having 2 l/min of oxygen, and local anesthesia with 0.4% of benoxil.
Intraocular tension was measured five times and the mean value was recorded.
5-ISMN and 2-ISMN were employed as the test compounds and dissolved in a physiological saline solution.
A volume of 35 μl of each solution was instilled in the left eye treated with α-chymotrypsin. Each solution was administered to five rabbits according to a crossover design.

Solubility in water = type: physicochemical
[2] = 500 mg/kg intravenous, ten animals

Row | Compound | mortality (ddy mice; [2]) | mortality (ddy mice; 1,000 mg/kg intravenous) | Intraocular tension ([1]; 0 hr, 3.0% solution) | Intraocular tension ([1]; 1 hr, 3.0% solution) | Intraocular tension ([1]; 3 hr, 3.0% solution) | Intraocular tension ([1]; 5 hr, 3.0% solution) | Intraocular tension ([1]; 7 hr, 3.0% solution) | Intraocular tension ([1]; 9 hr, 3.0% solution) | effects of lowering intraocular tension (conclusion) [1] | solubility in water (Solubility in water) | other results
1 | O=[N+]([O-])OC1COC2C(O)COC12 (stereo not drawn) [2-ISMN, isosorbide-2-mononitrate] | No animal died of the ten animals | No animal died of the ten animals | 31.2 ± 0.6 | 29.0 ± 0.8 | 29.1 ± 0.9 | 25.1 ± 1.4 | 24.6 ± 1.4 | 21.8 ± 1.3 | remarkable, continuous effects of lowering intraocular tension | highly soluble in water | symptoms observed (ddy mice; 500 mg/kg and 1,000 mg/kg groups, intravenous): Slight ataxia; effect of lowering intraocular tension ([1]; dose of 3%): exhibits an effect of lowering intraocular tension
2 | O=[N+]([O-])OC1COC2C(O)COC12 (stereo not drawn) [5-ISMN, isosorbide-5-mononitrate] | No animal died of the ten animals | no animal died | 30.8 ± 0.8 | 20.3 ± 0.9 | 16.4 ± 0.5 | 15.7 ± 0.5 | 16.2 ± 1.8 | 16.2 ± 2.2 | remarkable, continuous effects of lowering intraocular tension | highly soluble in water | symptoms observed (ddy mice; 500 mg/kg intravenous): Slight ataxia and restlessness; time to disappearance of symptoms (ataxia and restlessness) (ddy mice; 500 mg/kg intravenous): ≤ 30 min; Intraocular tension ([1]; 0 hr, 0.3% solution): 30.5 ± 0.8; Intraocular tension ([1]; 0 hr, 1.0% solution): 30.2 ± 0.5; Intraocular tension ([1]; 1 hr, 0.3% solution): 21.5 ± 0.5; Intraocular tension ([1]; 1 hr, 1.0% solution): 22.0 ± 1.9; Intraocular tension ([1]; 3 hr, 0.3% solution): 20.1 ± 0.9; Intraocular tension ([1]; 3 hr, 1.0% solution): 19.1 ± 0.6; Intraocular tension ([1]; 5 hr, 0.3% solution): 19.8 ± 1.2; Intraocular tension ([1]; 5 hr, 1.0% solution): 18.6 ± 0.9; Intraocular tension ([1]; 7 hr, 0.3% solution): 20.5 ± 0.7; Intraocular tension ([1]; 7 hr, 1.0% solution): 18.5 ± 1.0; Intraocular tension ([1]; 9 hr, 0.3% solution): 19.6 ± 1.8; Intraocular tension ([1]; 9 hr, 1.0% solution): 19.8 ± 1.3; dose dependence of effect of lowering intraocular tension ([1]; dose of 0.3 to 3%): would depend on the dose; duration of effect of lowering intraocular tension ([1]; dose of 0.3 to 3%): at least nine; effect of lowering intraocular tension ([1]; dose of 0.3 to 3%): remarkable effect of lowering intraocular tension
